Test results taken from the supplement of paper PMC10307832.

Legend:
Experiment in all cases: relative viability (nuclei count vs DMSO), 5 days (fraction); higher = more cells survive
[1] = compound: CN(C)C[C@@H]1CCn2cc(c3ccccc32)C2=C(C(=O)NC2=O)c2cn(c3ccccc23)CCO1 [Ruboxistaurin] + Cc1nc(NC(=O)N2CCC[C@H]2C(N)=O)sc1-c1ccnc(C(C)(C)C(F)(F)F)c1 [Alpelisib] (partner 2 µM)
Procedure, shortened: (§1)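 Relative viability is defined as nuclei in treated wells over nuclei in vehicle wells. Duplicate plates were run and medians reported. Lung cancer cell lines in 1536-well plates were dosed by pin tool one day after seeding, with one drug or with a fixed anchor-drug dose plus five library-drug doses (not always all listed) in √10 steps, and nuclei were counted after 5 days.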

[2] = compound: CN(C)C[C@@H]1CCn2cc(c3ccccc32)C2=C(C(=O)NC2=O)c2cn(c3ccccc23)CCO1 [Ruboxistaurin] + Nc1nc2[nH]cc(CCc3ccc(C(=O)N[C@@H](CCC(=O)O)C(=O)O)cc3)c2c(=O)[nH]1 [Pemetrexed] (partner 0.2 µM)
Procedure, shortened: as §1

[3] = compound: CN(C)C[C@@H]1CCn2cc(c3ccccc32)C2=C(C(=O)NC2=O)c2cn(c3ccccc23)CCO1 [Ruboxistaurin] + Nc1ncn([C@H]2C[C@H](O)[C@@H](CO)O2)c(=O)n1 [Decitabine] (partner 2 µM)
Procedure, shortened: as §1

[4] = compound: CN(C)C[C@@H]1CCn2cc(c3ccccc32)C2=C(C(=O)NC2=O)c2cn(c3ccccc23)CCO1 [Ruboxistaurin] + O=C(CCCCCCC(=O)Nc1ccccc1)NO [Vorinostat] (partner 1 µM)
Procedure, shortened: as §1

Ruboxistaurin + Olaparib = compound: CN(C)C[C@@H]1CCn2cc(c3ccccc32)C2=C(C(=O)NC2=O)c2cn(c3ccccc23)CCO1 [Ruboxistaurin] + O=C(c1cc(Cc2n[nH]c(=O)c3ccccc23)ccc1F)N1CCN(C(=O)C2CC2)CC1 [Olaparib] (partner 8 µM)
Procedure, shortened: as §1

Cell Line | relative viability ([1]; first compound 0.08 µM) | relative viability ([1]; first compound 0.8 µM) | relative viability ([1]; first compound 2.53 µM) | relative viability ([1]; first compound 8 µM) | relative viability ([2]; first compound 0.08 µM) | relative viability ([2]; first compound 0.8 µM) | relative viability ([2]; first compound 2.53 µM) | relative viability ([2]; first compound 8 µM) | relative viability ([3]; first compound 0.08 µM) | relative viability ([3]; first compound 0.8 µM) | relative viability ([3]; first compound 2.53 µM) | relative viability ([3]; first compound 8 µM) | relative viability ([4]; first compound 0.08 µM) | relative viability ([4]; first compound 0.8 µM) | relative viability ([4]; first compound 2.53 µM) | relative viability ([4]; first compound 8 µM) | relative viability (Ruboxistaurin + Olaparib; first compound 0.08 µM) | relative viability (Ruboxistaurin + Olaparib; first compound 0.8 µM) | relative viability (Ruboxistaurin + Olaparib; first compound 2.53 µM) | relative viability (Ruboxistaurin + Olaparib; first compound 8 µM)
NCI-H460 | 0.398 | 0.324 | 0.26 | 0.137 | 0.0661 | 0.0571 | 0.0621 | 0.0636 | 0.49 | 0.448 | 0.533 | 0.595 | 0.859 | 0.651 | 0.711 | 0.316 | 0.461 | 0.398 | 0.415 | 0.391
EKVX | 0.998 | 0.807 | 0.858 | 0.745 | 0.413 | 0.401 | 0.373 | 0.393 | 0.334 | 0.246 | 0.34 | 0.426 | 0.841 | 0.65 | 0.714 | 0.75 | 0.923 | 0.692 | 0.929 | 0.861
NCI-H1755 | 0.962 | 0.839 | 0.897 | 0.834 | 0.452 | 0.476 | 0.35 | 0.471 | 0.731 | 0.678 | 0.691 | 0.778 | 0.702 | 0.849 | 0.856 | 0.811 | 0.974 | 0.853 | 0.846 | 0.775
NCI-H1395 | 1.06 | 0.944 | 1.12 | 0.931 | 1.04 | 0.768 | 0.917 | 0.782 | 0.666 | 0.667 | 0.781 | 0.686 | 0.813 | 0.739 | 0.707 | 0.688 | 0.465 | 0.397 | 0.466 | 0.474
NCI-H2087 | 1.07 | 0.971 | 1.24 | 0.952 | 0.641 | 0.679 | 0.662 | 0.693 | 0.243 | 0.21 | 0.241 | 0.263 | 0.977 | 0.672 | 0.723 | 0.975 | 0.601 | 0.62 | 0.692 | 0.57
H3255 | 0.738 | 0.698 | 0.654 | 0.521 | 0.595 | 0.556 | 0.614 | 0.534 | 0.608 | 0.54 | 0.603 | 0.538 | 0.717 | 0.717 | 0.815 | 0.898 | 0.613 | 0.574 | 0.592 | 0.655
SK-MES-1 | 1 | 0.782 | 0.837 | 0.801 | 0.997 | 0.899 | 1.01 | 0.863 | 0.382 | 0.363 | 0.389 | 0.427 | 1.11 | 1.03 | 1.03 | 0.95 | 0.726 | 0.555 | 0.905 | 0.465
